According to patent US20100063047A1 (KALYPSYS, INC., priority 2008, published 2010):

Target: T1, human H1 (Homo sapiens, UniProt P35367)
T1 construct: host or cells: CHO-K1, also expressing mitochondrion-targeted aequorin
Assay: In vitro histamine H1 receptor cell-based aequorin bioluminescence antagonist assay
Conditions: CHO-K1 cells expressing human H1 and aequorin; histamine at EC80; read-out: H1 Antagonist EC50
Description: In vitro Histamine Receptor Cell-Based Assays
The cell-based assays utilize an aequorin dependent bioluminescence signal. Doubly-transfected, stable CHO—K1 cell lines expressing human H1 or H4, mitochondrion-targeted aequorin, and (H4 only) human G protein Gα16 are obtained from Perkin-Elmer. Cells are maintained in F12 (Ham's) growth medium, containing 10% (vol./vol.) fetal bovine serum, penicillin (100 IU/mL), streptomycin (0.1 mg/mL), zeocin (0.25 mg/mL) and geneticin (0.40 mg/mL). Cell media components are from Invitrogen, Inc. One day prior to assay, the growth medium is replaced with the same, excluding zeocin and geneticin.
For assay preparation, growth medium is aspirated, and cells are rinsed with calcium-free, magnesium-free phosphate-buffered saline, followed by two to three minute incubation in Versene (Invitrogen, Inc.) at 37° C. Assay medium (DMEM:F12 [50:50], phenol-red free, containing 1 mg/mL protease-free bovine serum albumin) is added to collect the released cells, which are then centrifuged. The cell pellet is re-suspended in assay medium, centrifuged once more, and re-suspended in assay medium to a final density of 5×10^6 cells/mL. Coelenterazine-h dye (500 μM in ethanol) is added to a final concentration of 5 μM, and mixed immediately. The conical tube containing the cells is then wrapped with foil to protect the light-sensitive dye. The cells are incubated for four hours further at room temperature (approximately 21° C.) with end-over-end rotation to keep them in suspension.
Just before assay, the dye-loaded cells are diluted to 0.75×10^6 cells/mL (H1 receptor) or 1.5×10^6 cells/mL (H4 receptor) with additional assay medium. Cells are dispensed to 1536 well micro-titer plates at 3 μL/well. To assay receptor antagonism, 60 nl of 100× concentration test compounds in 100% dimethyl sulfoxide (DMSO) are dispensed to the wells, one compound per well, by passive pin transfer, and the plates are incubated for 15 minutes at room temperature. […] The pipette dispenses 3 μL/well of agonist (histamine, at twice the final concentration, where final concentration is a previously determined EC80) in assay medium, with concurrent bioluminescence detection. Agonist activity of test compounds is excluded by separate assays that measure response to test compounds immediately, without added histamine agonist.
CCD image capture on the Lumilux includes a 5 second baseline read prior to agonist addition, and generally a 40 second read per plate after agonist addition. A decrease in bioluminescence signal (measured either as area-under-the-curve, or maximum signal amplitude minus minimum signal amplitude) correlates with receptor antagonism in a dose dependent manner. The negative control is DMSO lacking any test compound. For antagonist assays, the positive controls are diphenhydramine (2-Diphenylmethoxy-N,N-dimethylethylamine, 10 μM final concentration, H1 receptor) or JNJ7777120 (1-[(5-Chloro-1H-indol-2-yl)carbonyl]-4-methyl-piperazine, 10 μM final concentration, H4 receptor). Efficacy is measured as a percentage of positive control activity.

T1 sequence (P35367 whole entry): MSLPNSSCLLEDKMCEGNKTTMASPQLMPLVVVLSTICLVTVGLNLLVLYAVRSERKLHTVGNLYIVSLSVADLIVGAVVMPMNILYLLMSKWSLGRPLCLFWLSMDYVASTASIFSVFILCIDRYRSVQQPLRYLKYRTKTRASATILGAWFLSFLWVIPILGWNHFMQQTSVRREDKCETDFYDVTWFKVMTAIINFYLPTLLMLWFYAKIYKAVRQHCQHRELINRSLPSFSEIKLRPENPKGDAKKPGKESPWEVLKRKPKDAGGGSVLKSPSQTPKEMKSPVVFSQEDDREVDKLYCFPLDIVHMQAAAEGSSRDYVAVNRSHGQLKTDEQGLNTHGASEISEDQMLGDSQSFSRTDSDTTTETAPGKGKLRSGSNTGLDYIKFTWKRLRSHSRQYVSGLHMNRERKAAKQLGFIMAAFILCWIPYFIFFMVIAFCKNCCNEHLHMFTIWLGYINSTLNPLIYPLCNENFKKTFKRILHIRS

| EC50 [µM] | Compound |
| --- | --- |
| > 10 | Cc1csc2c(NCCc3ccc(Cl)cc3)ncnc12 [Example 295, N-(4-chlorophenethyl)-7-methylthieno[3,2-d]pyrimidin-4-amine] |
| > 10 | Cc1csc2ncnc(N3CCc4ccccc4C3)c12 [Example 216, 2-{5-methylthieno[2,3-d]pyrimidin-4-yl}-1,2,3,4-tetrahydroisoquinoline] |
| > 10 | Cc1csc2ncnc(NCCc3ccc4c(c3)OCO4)c12 [Example 175, N-[2-(2H-1,3-benzodioxol-5-yl)ethyl]-5-methylthieno[2,3-d]pyrimidin-4-amine] |
| > 10 | Cc1csc2ncnc(N3CCN(c4ccc(C(F)(F)F)cc4)CC3)c12 [Example 287, 1-{5-methylthieno[2,3-d]pyrimidin-4-yl}-4-[4-(trifluoromethyl)phenyl]piperazine] |
| > 10 | Cc1csc2ncnc(N3CCC(Cc4ccccc4)CC3)c12 [Example 240, 4-benzyl-1-{5-methylthieno[2,3-d]pyrimidin-4-yl}piperidine] |
| > 10 | COCC(C)n1c(C)cc(C(=O)CSc2ncnc3sc(C)c(C)c23)c1C (stereo not drawn) [Example 303, 2-(5,6-dimethylthieno[2,3-d]pyrimidin-4-ylthio)-1-(1-(1-methoxypropan-2-yl)-2,5-dimethyl-1H-pyrrol-3-yl)ethanone] |
| > 10 | Cc1csc2ncnc(N3CCCCC3CCO)c12 (stereo not drawn) [Example 215, 2-(1-{5-methylthieno[2,3-d]pyrimidin-4-yl}piperidin-2-yl)ethan-1-ol] |
| > 10 | CC(=O)c1c(C)[nH]c(C(=O)CSc2ncnc3sc(C)c(C)c23)c1C [Example 304, 1-(4-acetyl-3,5-dimethyl-1H-pyrrol-2-yl)-2-(5,6-dimethylthieno[2,3-d]pyrimidin-4-ylthio)ethanone] |
| > 10 | CC(C)(CNc1ncnc2sccc12)N1CCOCC1 [Example 308, N-(2-methyl-2-morpholinopropyl)thieno[2,3-d]pyrimidin-4-amine] |
| > 10 | Cc1csc2ncnc(NCc3ccc(Cl)cc3Cl)c12 [Example 167, N-[(2,4-dichlorophenyl)methyl]-5-methylthieno[2,3-d]pyrimidin-4-amine] |
| > 10 | Cc1csc2ncnc(N3CCN(c4ccc([N+](=O)[O-])cc4)CC3)c12 [Example 273, 1-{5-methylthieno[2,3-d]pyrimidin-4-yl}-4-(4-nitrophenyl)piperazine] |
| > 10 | Cc1csc2ncnc(NCc3ccc(C(F)(F)F)cc3)c12 [Example 164, 5-methyl-N-{[4-(trifluoromethyl)phenyl]methyl}thieno[2,3-d]pyrimidin-4-amine] |
| > 10 | Cc1sc2ncnc(NCCc3ccc(S(N)(=O)=O)cc3)c2c1C [Example 301, 4-(2-(5,6-dimethylthieno[2,3-d]pyrimidin-4-ylamino)ethyl)benzenesulfonamide] |
| > 10 | Cc1csc2ncnc(N3CCN(c4ccccc4C#N)CC3)c12 [Example 252, 2-(4-{5-methylthieno[2,3-d]pyrimidin-4-yl}piperazin-1-yl)benzonitrile] |

The next lines start with the compound.

| Compound | EC50 [µM] |
| --- | --- |
| Cc1csc2ncnc(NC3CCCCC3)c12 [Example 76, N-cyclohexyl-5-methylthieno[2,3-d]pyrimidin-4-amine] | > 10 |
| COc1ccccc1CNc1ncnc2scc(C)c12 [Example 123, N-[(2-methoxyphenyl)methyl]-5-methylthieno[2,3-d]pyrimidin-4-amine] | > 10 |
| COc1ccc(CCNc2ncnc3sccc23)cc1 [Example 48, N-[2-(4-methoxyphenyl)ethyl]thieno[2,3-d]pyrimidin-4-amine] | > 10 |
| Cc1csc2ncnc(NCc3ccccc3F)c12 [Example 104, N-[(2-fluorophenyl)methyl]-5-methylthieno[2,3-d]pyrimidin-4-amine] | > 10 |
| CCCC(C)Nc1ncnc2scc(C)c12 (stereo not drawn) [Example 66, 5-methyl-N-(pentan-2-yl)thieno[2,3-d]pyrimidin-4-amine] | > 10 |
| Cc1csc2ncnc(NCCCN(C)c3ccccc3)c12 [Example 157, N-methyl-N-[3-({5-methylthieno[2,3-d]pyrimidin-4-yl}amino)propyl]aniline] | > 10 |
| Cc1csc2ncnc(NCCC(C)(C)C)c12 [Example 78, N-(3,3-dimethylbutyl)-5-methylthieno[2,3-d]pyrimidin-4-amine] | > 10 |
| Cc1csc2ncnc(NCc3ccc4c(c3)OCO4)c12 [Example 141, N-(2H-1,3-benzodioxol-5-ylmethyl)-5-methylthieno[2,3-d]pyrimidin-4-amine] | > 10 |
| Cc1csc2ncnc(NCCCc3ccccc3)c12 [Example 117, 5-methyl-N-(3-phenylpropyl)thieno[2,3-d]pyrimidin-4-amine] | > 10 |
| COc1cccc(CCNc2ncnc3scc(C)c23)c1 [Example 16, [2-(3-Methoxyphenyl)ethyl](5-methylthiopheno[3,2-e]pyrimidin-4-yl)amine] | > 10 |
| Cc1csc2ncnc(NCCc3ccc(Cl)cc3)c12 [Example 46, N-[2-(4-chlorophenyl)ethyl]-5-methylthieno[2,3-d]pyrimidin-4-amine] | > 10 |
| Cc1csc2ncnc(NC3CCC3)c12 [Example 58, N-cyclobutyl-5-methylthieno[2,3-d]pyrimidin-4-amine] | > 10 |
| Cc1csc2ncnc(NCCc3cccc(F)c3)c12 [Example 18] | > 10 |
| Cc1csc2ncnc(NCc3ccc(F)c(F)c3)c12 [Example 134, N-[(3,4-difluorophenyl)methyl]-5-methylthieno[2,3-d]pyrimidin-4-amine] | > 10 |
| Cc1csc2ncnc(NCc3ccc(Cl)cc3)c12 [Example 131, N-[(4-chlorophenyl)methyl]-5-methylthieno[2,3-d]pyrimidin-4-amine] | > 10 |
| COc1cc(CNc2ncnc3scc(C)c23)cc(OC)c1 [Example 159, N-[(3,5-dimethoxyphenyl)methyl]-5-methylthieno[2,3-d]pyrimidin-4-amine] | > 10 |
| Cc1csc2ncnc(NCC3CCCO3)c12 (stereo not drawn) [Example 77, 5-methyl-N-(oxolan-2-ylmethyl)thieno[2,3-d]pyrimidin-4-amine] | > 10 |
| Cc1csc2ncnc(N[C@H](CO)Cc3ccccc3)c12 [Example 143, (2S)-2-({5-methylthieno[2,3-d]pyrimidin-4-yl}amino)-3-phenylpropan-1-ol] | > 10 |
| Cc1csc2ncnc(NCC3CCCCC3)c12 [Example 89, N-(cyclohexylmethyl)-5-methylthieno[2,3-d]pyrimidin-4-amine] | > 10 |
| Fc1ccccc1CCNc1ncnc2sc3c(c12)CCCC3 [Example 42, N-[2-(2-fluorophenyl)ethyl]-8-thia-4,6-diazatricyclo[7.4.0.0^{2,7}]trideca-1(9),2(7),3,5-tetraen-3-amine] | > 10 |
| Cc1csc2ncnc(NCCOc3ccccc3)c12 [Example 122, 5-methyl-N-(2-phenoxyethyl)thieno[2,3-d]pyrimidin-4-amine] | > 10 |
| Cc1csc2ncnc(NC(=O)Cc3ccc(Cl)cc3)c12 [Example 31, 2-(4-chlorophenyl)-N-(5-methylthieno[2,3-d]pyrimidin-4-yl)acetamide] | > 10 |
| Cc1csc2ncnc(NCCc3ccccc3F)c12 [Example 127, N-[2-(2-fluorophenyl)ethyl]-5-methylthieno[2,3-d]pyrimidin-4-amine] | > 10 |
| Cc1csc2ncnc(NCc3ccc(F)cc3)c12 [Example 103, N-[(4-fluorophenyl)methyl]-5-methylthieno[2,3-d]pyrimidin-4-amine] | > 10 |
| Cc1csc2ncnc(NCc3cccc(F)c3)c12 [Example 102, N-[(3-fluorophenyl)methyl]-5-methylthieno[2,3-d]pyrimidin-4-amine] | > 10 |
| Cc1csc2ncnc(NC(C)CC(C)C)c12 (stereo not drawn) [Example 79, 5-methyl-N-(4-methylpentan-2-yl)thieno[2,3-d]pyrimidin-4-amine] | > 10 |
| COCC(C)Nc1ncnc2scc(C)c12 (stereo not drawn) [Example 71, N-(1-methoxypropan-2-yl)-5-methylthieno[2,3-d]pyrimidin-4-amine] | > 10 |
| Cc1ccccc1CNc1ncnc2scc(C)c12 [Example 99, 5-methyl-N-[(2-methylphenyl)methyl]thieno[2,3-d]pyrimidin-4-amine] | > 10 |
